According to PubChem BioAssay (NCI):
Values joined by “and” are separate entries in the source; they are usually repeats but may differ in a detail not shown here. Equal values may be shown once.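 Briefly, cells in 96-well plates were exposed to five compound concentrations for 48 h, and endpoints were estimated by linear interpolation. At the GI50, growth is halved. TGI marks complete inhibition of growth.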

Legend:
Test in all cases: growth of human tumour cells (NCI), 48 h
ACHN renal = tested on: ACHN renal
SF-295 CNS = tested on: SF-295 CNS
OVCAR-3 ovarian = tested on: OVCAR-3 ovarian
SK-MEL-5 melanoma = tested on: SK-MEL-5 melanoma
SK-MEL-2 melanoma = tested on: SK-MEL-2 melanoma
MALME-3M melanoma = tested on: MALME-3M melanoma
HOP-92 NSCLC = tested on: HOP-92 NSCLC
NCI-H23 lung = tested on: NCI-H23 lung
COLO 205 colon = tested on: COLO 205 colon
SW-620 colon = tested on: SW-620 colon

SMILES	GI50 (ACHN renal)	TGI (ACHN renal)	GI50 (SF-295 CNS) [µM]	TGI (SF-295 CNS)	GI50 (OVCAR-3 ovarian)	TGI (OVCAR-3 ovarian)	GI50 (SK-MEL-5 melanoma) [µM]	TGI (SK-MEL-5 melanoma) [µM]	GI50 (SK-MEL-2 melanoma) [µM]	TGI (SK-MEL-2 melanoma) [µM]	GI50 (MALME-3M melanoma) [µM]	TGI (MALME-3M melanoma)	GI50 (HOP-92 NSCLC)	TGI (HOP-92 NSCLC)	GI50 (NCI-H23 lung)	TGI (NCI-H23 lung)	GI50 (COLO 205 colon) [µM]	TGI (COLO 205 colon) [µM]	GI50 (SW-620 colon) [µM]	TGI (SW-620 colon) [µM]
C=C1CC[C@@H]2[C@](C)(COC(C)=O)[C@H](OC(C)=O)CC[C@@]2(C)[C@@H]1CC(Sc1ccccc1)C1=CCOC1=O (stereo not given in full)	1.34 µM	2.84 µM	4.12	27.3 µM	1.14 µM	2.37 µM	1.42	2.82	2.25	4.59	1.74	3.63 µM	2.71 µM	8.71 µM	1.78 µM	3.67 µM	1.49	3.98	0.716	3.64
CN(C)c1nc2ccccc2[nH]1		> 100 µM		> 100 µM		> 100 µM		> 100		> 100		> 100 µM		> 100 µM		> 100 µM		> 100		> 100
COC(=O)c1cc2c(s1)C(=O)c1ccccc1-2		> 100 µM		> 100 µM		> 100 µM		> 100		> 100		> 100 µM		> 100 µM		> 100 µM		> 100		> 100
S=C(Nc1ccccc1)N(/N=C/C=C/c1ccccc1)c1nnc(-c2ccccc2)c(-c2ccccc2)n1		> 100 µM		> 100 µM		> 100 µM		> 100		> 100		> 100 µM		83.8 µM		> 100 µM		> 100		> 100
N#CC(=C1C=CC(=NO)C=C1)c1ccccc1	1.14 µM	10.1 µM	2.91	8.16 µM	0.458 µM	4.38 µM	2.01	8.3	2.14	6.77	4.92	19.8 µM	2.49 µM	9.46 µM	9.92 µM	34.1 µM	6.33	18.5	0.473	2.36
CC(=O)c1cccc(NC(=O)C(=O)NNc2n[nH]c(=S)n2N)c1		19.7 µM		16.9 µM		15.9 µM		2.6		13.1		5.18 µM		28.7 µM		11.4 µM		27.9		22.5
COc1cc(C(Cc2ccccc2)NC(C)=O)oc(=O)c1 (stereo not given)		> 100 µM		> 100 µM		> 100 µM		> 100		> 100		> 100 µM		> 100 µM		> 100 µM		> 100		> 100
CC1(C)COC(c2cccnc2/C=N/O)=N1		> 100 µM		> 100 µM		> 100 µM		> 100		> 100		> 100 µM		> 100 µM		> 100 µM		> 100		> 100
O=C(Cc1ccc(/C=C/C(=O)c2ncc[nH]2)cc1)Nc1cc(F)c(F)c(F)c1	3.89 µM	7.23 µM	6.82	20.5 µM	2.81 µM	6.14 µM	4.18	8.19	5.15	15.7	4.33	12.2 µM	3.53 µM	8 µM	3.82 µM	9.11 µM	4.08	9.4	1.88	6.79
Cc1cc(I)cc(CN(C)CCCN2CCCCCCC2)c1O	18.1 µM	32.4 µM	7.38	23 µM	14.8 µM	29.1 µM	6.94	19.4	21.8	41.7	19.5	36.1 µM	11.6 µM	29.8 µM	18.1 µM	48.7 µM	17.4	37.1	16.2	30.8
[Cl][Hg][c]1cc(Br)cc(Br)c1	3.83 µM	14.8 µM	3.31	15.7 µM	1.19 µM	2.46 µM	1.54	3.04	1.97	5.66	1.69	3.28 µM	1.7 µM	3.45 µM	2.65 µM	9.02 µM	2.14	4.97	1.74	3.52
O/N=C/C1C(OCc2ccccc2)C(OCc2ccccc2)C(OCc2ccccc2)CN1Cc1ccccc1 (stereo not given)	15.2 µM and 4.4 µM	37.4 µM and > 100 µM		29.5 µM and > 100 µM	16.9 µM and 7.69 µM	40.2 µM and > 100 µM		23.9		53.9		97.6 µM and 33.6 µM	13.6 µM and 1.99 µM	33.1 µM and 9.16 µM	14.1 µM and 2.78 µM	41.7 µM and 26.6 µM	12.3	25.2		> 100
N#CC(N)(C(=O)CCC(=O)Nc1cccc(Cl)c1)c1ccc(Cl)cc1 (stereo not given)		> 100 µM		> 100 µM		> 100 µM		> 100		> 100		> 100 µM		> 100 µM		> 100 µM		> 100		> 100
CC(C)CCN1c2nc(Nc3cc(F)c(O)c(F)c3)ncc2N(C)C(=O)C1C (stereo not given)	3.21 µM	> 59.5 µM	11.3	> 100 µM	3.65 µM	24.1 µM	2.65	14	3.14	15.2	6.63	64 µM	0.591 µM	14.9 µM	5.27 µM	67.8 µM	14.6	29.3	4.09	27.4
Cc1ccc(S(=O)(=O)N(CC(=O)O)c2ccccc2)cc1		> 100 µM		> 100 µM		> 100 µM		> 100		> 100		> 100 µM		> 100 µM		> 100 µM		> 100		> 100
O=c1c2sc(=S)n(-c3ccc(F)cc3)c2ncn1Cc1ccc(F)cc1F	> 100 µM	> 100 µM	81.9	> 100 µM	> 100 µM	> 100 µM	84.3	> 100	> 100	> 100	> 100	> 100 µM	44.8 µM	> 100 µM	> 100 µM	> 100 µM	> 100	> 100	> 100	> 100
CNC(=O)N(C)N=NCCCl		> 100 µM		> 100 µM		> 100 µM		> 100		> 100		> 100 µM		> 100 µM		> 100 µM		> 100		> 100
